Results reported in patent US9006177B2 (Advinus Therapeutics Limited, priority 2010, dated 2015).

Target: T1, Human A2A adenosine receptor (Homo sapiens, UniProt P29274)
T1 construct: expressed in transfected cells
Assay: Radioligand binding for A2A adenosine receptor ([3H]-ZM-241385 competition, HEK-A2A membranes)
Settings: HEK-293 membranes, 2 nM [3H]-ZM-241385, read-out: A2A Cell based Functional Ki*
From the text: […]

T1 sequence (P29274 whole entry): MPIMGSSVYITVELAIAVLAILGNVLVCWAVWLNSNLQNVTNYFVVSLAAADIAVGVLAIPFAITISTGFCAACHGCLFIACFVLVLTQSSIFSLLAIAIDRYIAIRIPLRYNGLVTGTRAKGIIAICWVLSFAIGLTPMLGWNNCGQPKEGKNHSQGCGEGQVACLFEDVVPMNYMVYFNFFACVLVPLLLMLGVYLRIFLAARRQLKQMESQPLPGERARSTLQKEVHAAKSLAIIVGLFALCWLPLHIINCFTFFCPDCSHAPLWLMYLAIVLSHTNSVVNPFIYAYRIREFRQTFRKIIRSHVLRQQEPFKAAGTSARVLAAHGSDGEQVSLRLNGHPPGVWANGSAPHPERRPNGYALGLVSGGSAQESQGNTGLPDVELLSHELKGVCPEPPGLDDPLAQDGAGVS

Row | Ki | SMILES
1 | 0.1 to 10 nM | COCCOc1ccc(N2CCN(CCn3c(=O)n(C)c4c3nc(N)n3nc(-c5ccco5)nc43)CC2)cc1 [Example A1]
2 | 0.1 to 10 nM | Cc1ccc(N2CCN(CCn3c(=O)n(C)c4c3nc(N)n3nc(-c5ccco5)nc43)CC2)cc1 [Example A7, 5-Amino-8-(2-furyl)-1-methyl-3-[2-[4-(p-tolyl)piperazin-1-yl]ethyl]-[1,2,4]triazolo[5,1-f]purin-2-one]
3 | 0.1 to 10 nM | COc1ccc(N2CCN(CCn3c(=O)n(C)c4c3nc(N)n3nc(-c5ccco5)nc43)CC2)c(F)c1 [Example A9]
4 | 0.1 to 10 nM | Cn1c(=O)n(CCN2CCN(c3ccc(C(C)(C)O)cc3)CC2)c2nc(N)n3nc(-c4ccco4)nc3c21 [Example A13]
5 | 0.1 to 10 nM | COCCOc1ccc(N2CCN(CCn3c(=O)n(C)c4c3nc(N)n3nc(-c5ccco5)nc43)CC2)c(F)c1 [Example A31]
6 | 10 to 100 nM | Cn1c(=O)n(CCN2CCN(CC3CC3)CC2)c2nc(N)n3nc(-c4ccco4)nc3c21 [Example A36, 5-Amino-3-[2-[4-(cyclopropylmethyl)piperazin-1-yl]ethyl]-8-(2-furyl)-1-methyl-[1,2,4]triazolo[5,1-f]purin-2-one]
7 | 0.1 to 10 nM | CN(C)S(=O)(=O)N1CCN(CCn2c(=O)n(C)c3c2nc(N)n2nc(-c4ccco4)nc32)CC1 [Example A38, 4-[2-[5-Amino-8-(2-furyl)-1-methyl-2-oxo-[1,2,4]triazolo[5,1-f]purin-3-yl]ethyl]-N,N-dimethyl-piperazine-1-sulfonamide]
8 | 0.1 to 10 nM | Cn1c(=O)n(CCN2CCN(c3ccc(OC4CCOC4)cc3)CC2)c2nc(N)n3nc(-c4ccco4)nc3c21 (stereo not drawn) [Example A39, 5-Amino-8-(2-furyl)-1-methyl-3-[2-[4-(4-tetrahydrofuran-3-yloxyphenyl)piperazin-1-yl]ethyl]-[1,2,4]triazolo[5,1-f]purin-2-one]
9 | 0.1 to 10 nM | Cc1cnc2c(c1)CN(CCn1c(=O)n(C)c3c1nc(N)n1nc(-c4ccco4)nc31)CC2 [Example A42, 5-Amino-8-(2-furyl)-1-methyl-3-[2-(3-methyl-7,8-dihydro-5H-1,6-naphthyridin-6-yl)ethyl]-[1,2,4]triazolo[5,1-f]purin-2-one]
10 | 0.1 to 10 nM | COc1ccc(CCn2c(=O)n(C)c3c2nc(N)n2nc(-c4ccco4)nc32)cc1 [Example A57]
11 | 0.1 to 10 nM | Cn1c(=O)n(CCN2CCN(c3ccc(OC(F)F)cc3)CC2)c2nc(N)n3nc(-c4ccco4)nc3c21 [Example A58, 5-amino-3-[2-[4-[4-(difluoromethoxy)phenyl]piperazin-1-yl]ethyl]-8-(2-furyl)-1-methyl-[1,2,4]triazolo[5,1-f]purin-2-one]
12 | 0.1 to 10 nM | Cn1c(=O)n(CCN2CCN(C(=O)C3CC3)CC2)c2nc(N)n3nc(-c4ccco4)nc3c21 [Example A62, 5-Amino-3-[2-[4-(cyclopropanecarbonyl)piperazin-1-yl]ethyl]-8-(2-furyl)-1-methyl-[1,2,4]triazolo[5,1-f]purin-2-one]
13 | 10 to 100 nM | Cn1c(=O)n(CCN2CCN(C(=O)CC3CC3)CC2)c2nc(N)n3nc(-c4ccco4)nc3c21 [Example A63, 5-Amino-3-[2-[4-(2-cyclopropylacetyl)piperazin-1-yl]ethyl]-8-(2-furyl)-1-methyl-[1,2,4]triazolo[5,1-f]purin-2-one]
14 | 0.1 to 10 nM | CCOc1ccc(N2CCN(CCn3c(=O)n(CC4CC4)c4c3nc(N)n3nc(-c5ccco5)nc43)CC2)cc1 [Example C1, 5-Amino-1-(cyclopropylmethyl)-3-[2-[4-(4-ethoxyphenyl)piperazin-1-yl]ethyl]-8-(2-furyl)-[1,2,4]triazolo[5,1-f]purin-2-one]
15 | 0.1 to 10 nM | CCn1c(=O)n(CCn2cc(-c3ccc(F)cc3F)cn2)c2nc(N)n3nc(-c4ccco4)nc3c21 [Example D3]
16 | 0.1 to 10 nM | Nc1nc2c(c3nc(-c4ccco4)nn13)n(CC1CC1)c(=O)n2CCn1cc(C(=O)O)cn1 [Example E1, 1-[2-[5-Amino-1-(cyclopropylmethyl)-8-(2-furyl)-2-oxo-[1,2,4]triazolo[5,1-f]purin-3-yl]ethyl]pyrazole-4-carboxylic acid]
17 | 10 to 100 nM | CCn1c(=O)n(CCN2CCN(c3ccc(F)cc3F)CC2)c2nc(N)n3nc(-c4ccco4)nc3c21 [Example G2]
18 | 0.1 to 10 nM | Nc1nc2c(c3nc(-c4ccco4)nn13)n(CC(F)(F)F)c(=O)n2CCN1CCN(c2ccc(F)cc2F)CC1 [Example H2, 5-Amino-3-{2-[4-(2,4-difluoro-phenyl)-piperazin-1-yl]-ethyl}-8-furan-2-yl-1-(2,2,2-trifluoro-ethyl)-1,3-dihydro-[1,2,4]triazolo[5,1-f]purin-2-one]
19 | 0.1 to 10 nM | COCCOc1ccc(N2CCN(CCn3c(=O)n(C)c4c3nc(N)n3nc(-c5nccs5)nc43)CC2)cc1 [Example M1, 5-Amino-3-[2-[4-[4-(2-methoxyethoxy)phenyl]piperazin-1-yl]ethyl]-1-methyl-8-thiazol-2-yl-[1,2,4]triazolo[5,1-f]purin-2-one]
20 | 10 to 100 nM | Cn1c(=O)n(CCN2CCN(C(=O)CC3CC3)CC2)c2nc(N)n3nc(-c4nccs4)nc3c21 [Example M3, 5-Amino-3-[2-[4-(2-cyclopropylacetyl)piperazin-1-yl]ethyl]-1-methyl-8-thiazol-2-yl-[1,2,4]triazolo[5,1-f]purin-2-one]
21 | 0.1 to 10 nM | Cc1cnc2c(c1)CN(CCn1c(=O)n(C)c3c1nc(N)n1nc(-c4nccs4)nc31)CC2 [Example M6, 5-Amino-1-methyl-3-[2-(3-methyl-7,8-dihydro-5H-1,6-naphthyridin-6-yl)ethyl]-8-thiazol-2-yl-[1,2,4]triazolo[5,1-f]purin-2-one]
